The values below come from PubChem BioAssay AID1259407 (Chemical Carcinogenesis Research Information System (CCRIS), 2018).

Activity calls are given as the source filed them. How the calls were made is not given here.

The subject of this data set is CCRIS mutagenicity, Ames/micronucleus/aberration tests. Briefly: CCRIS mutagenicity studies.
Setting [1] is: Test System: AMES SALMONELLA TYPHIMURIUM, Strain/Indicator: TA97, Metabolic Activation: NONE, Method: STANDARD PLATE.
[2] abbreviates: Test System: AMES SALMONELLA TYPHIMURIUM, Strain/Indicator: TA98, Metabolic Activation: NONE, Method: STANDARD PLATE.
The mark [3] stands for this setting: Test System: AMES SALMONELLA TYPHIMURIUM, Strain/Indicator: TA100, Metabolic Activation: NONE, Method: STANDARD PLATE.
Setting [4] is: Test System: AMES SALMONELLA TYPHIMURIUM, Strain/Indicator: TA100, Metabolic Activation: RAT, LIVER, S-9, AROCLOR 1254, Method: STANDARD PLATE.
Where [5] appears, read: Test System: AMES SALMONELLA TYPHIMURIUM, Strain/Indicator: TA102, Metabolic Activation: NONE, Method: STANDARD PLATE.

Regarding `CC(=O)/C=C/C1=C(C)CCCC1(C)C`, the mutagenic call runs as follows: (Test System: AMES SALMONELLA TYPHIMURIUM, Strain/Indicator: TA98, Metabolic Activation: HAMSTER, LIVER, S-9, AROCLOR 1254 (10%), Method: PREINCUBATION) “inactive; negative”; (Test System: AMES SALMONELLA TYPHIMURIUM, Strain/Indicator: TA98, Metabolic Activation: NONE, Method: PREINCUBATION) “inactive; negative”; (Test System: AMES SALMONELLA TYPHIMURIUM, Strain/Indicator: TA98, Metabolic Activation: RAT, LIVER, S-9, AROCLOR 1254 (10%), Method: PREINCUBATION) “inactive; negative”; (Test System: AMES SALMONELLA TYPHIMURIUM, Strain/Indicator: TA100, Metabolic Activation: HAMSTER, LIVER, S-9, AROCLOR 1254 (10%), Method: PREINCUBATION) “inactive; negative”; (Test System: AMES SALMONELLA TYPHIMURIUM, Strain/Indicator: TA100, Metabolic Activation: NONE, Method: PREINCUBATION) “inactive; negative”; (Test System: AMES SALMONELLA TYPHIMURIUM, Strain/Indicator: TA100, Metabolic Activation: RAT, LIVER, S-9, AROCLOR 1254 (10%), Method: PREINCUBATION) “inactive; negative”. The mutagenic call reads like this: (Test System: AMES SALMONELLA TYPHIMURIUM, Strain/Indicator: TA1535, Metabolic Activation: HAMSTER, LIVER, S-9, AROCLOR 1254 (10%), Method: PREINCUBATION) “inactive; negative”; (Test System: AMES SALMONELLA TYPHIMURIUM, Strain/Indicator: TA1535, Metabolic Activation: NONE, Method: PREINCUBATION) “inactive; negative”; (Test System: AMES SALMONELLA TYPHIMURIUM, Strain/Indicator: TA1535, Metabolic Activation: RAT, LIVER, S-9, AROCLOR 1254 (10%), Method: PREINCUBATION) “inactive; negative”; (Test System: AMES SALMONELLA TYPHIMURIUM, Strain/Indicator: TA1537, Metabolic Activation: HAMSTER, LIVER, S-9, AROCLOR 1254 (10%), Method: PREINCUBATION) “inactive; negative”; (Test System: AMES SALMONELLA TYPHIMURIUM, Strain/Indicator: TA1537, Metabolic Activation: NONE, Method: PREINCUBATION) “inactive; negative”; (Test System: AMES SALMONELLA TYPHIMURIUM, Strain/Indicator: TA1537, Metabolic Activation: RAT, LIVER, S-9, AROCLOR 1254 (10%), Method: PREINCUBATION) “inactive; negative”. Besides, the mutagenic call reads like this: (Test System: Ames Salmonella typhimurium, Strain/Indicator: TA97a, Metabolic Activation: None, Method: Preincubation) “inactive; negative”; (Test System: Ames Salmonella typhimurium, Strain/Indicator: TA97a, Metabolic Activation: None, Method: Standard plate) “inactive; negative”; (Test System: Ames Salmonella typhimurium, Strain/Indicator: TA97a, Metabolic Activation: Rat, Liver, S-9, Aroclor 1254, Method: Preincubation) “inactive; negative”; (Test System: Ames Salmonella typhimurium, Strain/Indicator: TA97a, Metabolic Activation: Rat, Liver, S-9, Aroclor 1254, Method: Standard plate) “inactive; negative”; (Test System: Ames Salmonella typhimurium, Strain/Indicator: TA98, Metabolic Activation: None, Method: Preincubation) “inactive; negative”; (Test System: Ames Salmonella typhimurium, Strain/Indicator: TA98, Metabolic Activation: None, Method: Standard plate) “inactive; negative”. The mutagenic call was “inactive; negative” (Test System: Ames Salmonella typhimurium, Strain/Indicator: TA98, Metabolic Activation: Rat, Liver, S-9, Aroclor 1254, Method: Preincubation); “inactive; negative” (Test System: Ames Salmonella typhimurium, Strain/Indicator: TA98, Metabolic Activation: Rat, Liver, S-9, Aroclor 1254, Method: Standard plate); “inactive; negative” (Test System: Ames Salmonella typhimurium, Strain/Indicator: TA100, Metabolic Activation: None, Method: Preincubation); “inactive; negative” (Test System: Ames Salmonella typhimurium, Strain/Indicator: TA100, Metabolic Activation: None, Method: Standard plate); “inactive; negative” (Test System: Ames Salmonella typhimurium, Strain/Indicator: TA100, Metabolic Activation: Rat, Liver, S-9, Aroclor 1254, Method: Preincubation); “inactive; negative” (Test System: Ames Salmonella typhimurium, Strain/Indicator: TA100, Metabolic Activation: Rat, Liver, S-9, Aroclor 1254, Method: Standard plate). The mutagenic call was “inactive; negative” (Test System: Ames Salmonella typhimurium, Strain/Indicator: TA1535, Metabolic Activation: None, Method: Preincubation); “inactive; negative” (Test System: Ames Salmonella typhimurium, Strain/Indicator: TA1535, Metabolic Activation: None, Method: Standard plate); “inactive; negative” (Test System: Ames Salmonella typhimurium, Strain/Indicator: TA1535, Metabolic Activation: Rat, Liver, S-9, Aroclor 1254, Method: Preincubation); “inactive; negative” (Test System: Ames Salmonella typhimurium, Strain/Indicator: TA1535, Metabolic Activation: Rat, Liver, S-9, Aroclor 1254, Method: Standard plate).

As for `CC1CS(=O)(=O)CCN1/N=C/c1ccc([N+](=O)[O-])o1` (centres undefined), the mutagenic call was “active; positive” under setting [1]; “inactive; negative” under setting [2]; “active; positive” under setting [3]; “active; positive” under setting [4]; “active; positive” under setting [5].

With `CCC(C)Nc1snc2ccccc12` (centres undefined), the mutagenic call is, setting by setting: under setting [2], “inactive; negative”; (Test System: AMES SALMONELLA TYPHIMURIUM, Strain/Indicator: TA98, Metabolic Activation: S-9, Method: STANDARD PLATE) “inactive; negative”; under setting [3], “inactive; negative”; (Test System: AMES SALMONELLA TYPHIMURIUM, Strain/Indicator: TA100, Metabolic Activation: S-9, Method: STANDARD PLATE) “inactive; negative”; (Test System: AMES SALMONELLA TYPHIMURIUM, Strain/Indicator: TA1535, Metabolic Activation: NONE, Method: STANDARD PLATE) “inactive; negative”; (Test System: AMES SALMONELLA TYPHIMURIUM, Strain/Indicator: TA1535, Metabolic Activation: S-9, Method: STANDARD PLATE) “inactive; negative”. The mutagenic call (Test System: AMES SALMONELLA TYPHIMURIUM, Strain/Indicator: TA1537, Metabolic Activation: NONE, Method: STANDARD PLATE) is “inactive; negative” and the mutagenic call (Test System: AMES SALMONELLA TYPHIMURIUM, Strain/Indicator: TA1537, Metabolic Activation: S-9, Method: STANDARD PLATE) is “inactive; negative”.

As for `CC(=O)O[C@H]1[C@@]2(O)CC(C)(C)CC2=C(C=O)[C@@]2(C=O)C[C@@]12C`, the mutagenic call is “inactive; negative” under setting [2]; “active; positive” under setting [3]; “inactive; negative” (Test System: AMES SALMONELLA TYPHIMURIUM, Strain/Indicator: TA2637, Metabolic Activation: NONE, Method: STANDARD PLATE).

Consider `CCC(CCCC(=O)O)COC(=O)c1ccccc1C(=O)O` (centres undefined), for which the mutagenic call runs as follows: under setting [1], “inactive; negative”; (Test System: AMES SALMONELLA TYPHIMURIUM, Strain/Indicator: TA97, Metabolic Activation: RAT, LIVER, S-9, AROCLOR 1254, Method: STANDARD PLATE) “inactive; negative”; (Test System: AMES SALMONELLA TYPHIMURIUM, Strain/Indicator: TA97, Metabolic Activation: RAT, LIVER, S-9, DI(2-ETHYLHEXYL)PHTHALATE, Method: STANDARD PLATE) “inactive; negative”; under setting [2], “inactive; negative”; (Test System: AMES SALMONELLA TYPHIMURIUM, Strain/Indicator: TA98, Metabolic Activation: RAT, LIVER, S-9, AROCLOR 1254, Method: STANDARD PLATE) “inactive; negative”; (Test System: AMES SALMONELLA TYPHIMURIUM, Strain/Indicator: TA98, Metabolic Activation: RAT, LIVER, S-9, DI(2-ETHYLHEXYL)PHTHALATE, Method: STANDARD PLATE) “inactive; negative”. The mutagenic call was “inactive; negative” under setting [3]; “inactive; negative” under setting [4]; “inactive; negative” (Test System: AMES SALMONELLA TYPHIMURIUM, Strain/Indicator: TA100, Metabolic Activation: RAT, LIVER, S-9, DI(2-ETHYLHEXYL)PHTHALATE, Method: STANDARD PLATE); “inactive; negative” under setting [5]; “inactive; negative” (Test System: AMES SALMONELLA TYPHIMURIUM, Strain/Indicator: TA102, Metabolic Activation: RAT, LIVER, S-9, AROCLOR 1254, Method: STANDARD PLATE); “inactive; negative” (Test System: AMES SALMONELLA TYPHIMURIUM, Strain/Indicator: TA102, Metabolic Activation: RAT, LIVER, S-9, DI(2-ETHYLHEXYL)PHTHALATE, Method: STANDARD PLATE).

In the case of `Cc1c(O)c(=O)ccn1C`, the mutagenic call by setting is: (Test System: MOUSE LYMPHOMA, Strain/Indicator: L5178Y (TK+/TK-), Metabolic Activation: NONE, Method: SUSPENSION/PLATE) “active; positive. reevaluation of results: positive”; (Test System: MOUSE LYMPHOMA, Strain/Indicator: L5178Y (TK+/TK-), Metabolic Activation: RAT, LIVER, S-9, AROCLOR 1254, Method: SUSPENSION/PLATE) “active; positive. reevaluation of results: equivocal”.

Consider `Cc1c2c(c(C)c3ccccc13)-c1cccc3cccc-2c13`, for which the mutagenic call (Test System: AMES SALMONELLA TYPHIMURIUM, Strain/Indicator: TA100, Metabolic Activation: RAT, LIVER, S-9, AROCLOR 1254) was “active; positive”.
